Tests used:
[1] = target: human AT2R fused to Cb23 (Homo sapiens, UniProt P50052); assay: Radioligand binding assay, displacement of 125I-[Sar1, Ile8]-Angiotensin II, hAT2R Cb23; details: displacement of 125I-[Sar1, Ile8]-Angiotensin II, human AT2R fused to Cb23, HEK-293 cell membrane preparations; read-out: Binding affinity on hAT2R_Cb23 IC50
In short: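 Membranes from HEK-293 cells expressing human AT2R fused to Cb23 were incubated with 0.05 nM 125I-[Sar1, Ile8]-Angiotensin II in 100 μL buffer (50 mM Tris, 5 mM MgCl2, 1 mM EDTA, 0.1% BSA, pH 7.4) for one hour at 25° C. Ligands were tested as eight-point dose-response curves in duplicate, with C21 and Angiotensin II as references.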

[2] = target: human AT1R (Homo sapiens (Human), UniProt P30556); assay: Counterscreen radioligand binding assay, displacement of 125I-[Sar1, Ile8]-Angiotensin II, hAT1R WT; details: for inhibition at 1 µM / inhibition at 10 µM: 125I-[Sar1, Ile8]-Ang II, semi-quantitative score; for inhibition at 1 µM: compound at 1 μM, read-out: % Displaced radioligand at 1 μM; for inhibition at 10 µM: compound at 10 μM, read-out: % Displaced radioligand at 10 μM; for IC50: HEK-293 cell membranes, read-out: Binding affinity On hAT1R IC50
In short: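 Membranes from HEK-293 cells expressing human AT1R were incubated for one hour at 25° C, pH 7.4, with 0.05 nM radiolabelled [Sar1, Ile8]-Ang II and test ligand. Bound radioactivity was collected on PEI-soaked filters, with 10 μM unlabelled [Sar1]-Ang II defining non-specific binding. Results are percent displacement at 1 μM and […], or IC50 from eight-point duplicate curves.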

Sequence of human AT1R (P30556 whole entry): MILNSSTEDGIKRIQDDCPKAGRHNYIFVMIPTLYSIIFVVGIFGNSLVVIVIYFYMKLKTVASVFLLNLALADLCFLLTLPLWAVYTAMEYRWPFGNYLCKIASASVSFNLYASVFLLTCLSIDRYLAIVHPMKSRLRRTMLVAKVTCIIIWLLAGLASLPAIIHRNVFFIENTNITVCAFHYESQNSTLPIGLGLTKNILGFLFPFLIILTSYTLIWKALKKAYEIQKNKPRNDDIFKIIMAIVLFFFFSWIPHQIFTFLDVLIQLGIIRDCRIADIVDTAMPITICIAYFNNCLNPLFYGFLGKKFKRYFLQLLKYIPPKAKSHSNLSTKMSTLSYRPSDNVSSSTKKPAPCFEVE
Sequence of human AT2R fused to Cb23 (P50052 whole entry, looked up, the tested form may be a part): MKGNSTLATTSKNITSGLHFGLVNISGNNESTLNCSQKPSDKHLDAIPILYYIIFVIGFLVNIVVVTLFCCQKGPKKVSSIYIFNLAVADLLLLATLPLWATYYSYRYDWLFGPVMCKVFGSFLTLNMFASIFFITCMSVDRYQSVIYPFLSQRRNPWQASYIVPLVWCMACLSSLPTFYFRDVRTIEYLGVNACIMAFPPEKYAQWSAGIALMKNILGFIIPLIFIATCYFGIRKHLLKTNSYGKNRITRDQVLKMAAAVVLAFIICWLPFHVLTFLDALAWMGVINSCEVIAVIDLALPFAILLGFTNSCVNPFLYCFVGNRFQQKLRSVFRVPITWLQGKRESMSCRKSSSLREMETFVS

Structure (SMILES) | IC50 [1] | inhibition at 1 µM [2] | inhibition at 10 µM [2] | IC50 [2]
Cc1ccn2c(=O)cc(CN3CCN(c4cc(CC(C)C)ccc4-c4nn[nH]n4)CC3)nc2c1 [Compound A-72, 2-[[4-[5-isobutyl-2-(2H-tetrazol-5-yl)phenyl]piperazin-1-yl]methyl]-8-methyl-pyrido[1,2-a]pyrimidin-4-one] | 8.39 µM | < 30% | < 30% | –
Cc1cccc2nc(CN3CCN(c4cc(CC(C)C)ccc4-c4nn[nH]n4)CC3)cc(=O)n12 [Compound A-73, 2-[[4-[5-isobutyl-2-(2H-tetrazol-5-yl)-phenyl]piperazin-1-yl]methyl]-6-methyl-pyrido[1,2-a]pyrimidin-4-one-] | 4.3 µM | < 30% | < 30% | –
Cc1csc2nc(CN3CCN(c4cc(CC(C)C)ccc4-c4nn[nH]n4)CC3)cc(=O)n12 [Compound A-75, 7-[[4-[5-isobutyl-2-(2H-tetrazol-5-yl)phenyl]piperazin-1-yl]methyl]-3-methyl-thiazolo[3,2-a]pyrimidin-5-one] | 5.92 µM | < 30% | < 30% | –
CC(C)Cc1ccc(-c2nn[nH]n2)c(N2CCN(Cc3cc(=O)n4ccccc4n3)CC2)c1 [Compound A-76, 2-[[4-[5-isobutyl-2-(2H-tetrazol-5-yl)-phenyl]piperazin-1-yl]methyl]pyrido-[1,2-a]pyrimidin-4-one] | 5.57 µM | < 30% | < 30% | –
CC(C)Cc1ccc(-c2nn[nH]n2)c(N2CCN(Cc3cc4ccccc4n(C)c3=O)CC2)c1 [Compound A-77, 3-[[4-[5-isobutyl-2-(2H-tetrazol-5-yl)-phenyl]piperazin-1-yl]methyl]-1-methyl-quinolin-2-one] | 2.91 µM | < 30% | 30 to 50% | 13.5 µM
CC(C)Cc1ccc(-c2nn[nH]n2)c(N2CCN(Cc3nc4ccccc4c(=O)n3C)CC2)c1 [Compound A-78, 2-[[4-[5-isobutyl-2-(2H-tetrazol-5-yl)-phenyl]piperazin-1-yl]methyl]-3-methyl-quinazolin-4-one] | 1.5 µM | < 30% | 30 to 50% | 12.2 µM
CC(C)Cc1ccc(-c2nn[nH]n2)c(N2CCN(Cc3nc4ccccc4n(C)c3=O)CC2)c1 [Compound A-79, 3-[[4-[5-isobutyl-2-(2H-tetrazol-5-yl)-phenyl]piperazin-1-yl]methyl]-1-methyl-quinoxalin-2-one] | 4.72 µM | < 30% | < 30% | –
CC(C)Cc1ccc(-c2nn[nH]n2)c(N2CCN(Cc3cnc4ccccn34)CC2)c1 [Compound A-80, 3-[[4-[5-isobutyl-2-(2H-tetrazol-5-yl)-phenyl]piperazin-1-yl]methyl]imid-azo[1,2-a]pyridine] | 0.222 µM | < 30% | < 30% | –
CC(C)Cc1ccc(-c2nn[nH]n2)c(N2CCN(Cc3nn(C)c4ccccc34)CC2)c1 [Compound A-81, 3-[[4-[5-isobutyl-2-(2H-tetrazol-5-yl)-phenyl]piperazin-1-yl]methyl]-1-methyl-indazole] | 1.84 µM | < 30% | < 30% | –
CC(C)Cc1ccc(-c2nn[nH]n2)c(N2CCN(Cc3ccc(C(F)(F)F)cn3)CC2)c1 [Compound A-85, 1-[5-isobutyl-2-(2H-tetrazol-5-yl)-phenyl]-4-[[5-(trifluoromethyl)-2-pyridyl]methyl]-piperazine] | 2.03 µM | < 30% | < 30% | 45 µM
Cc1nc(CN2CCN(c3cc(CC(C)C)ccc3-c3nn[nH]n3)CC2)no1 [Compound A-86, 3-[[4-[5-isobutyl-2-(2H-tetrazol-5-yl)phenyl]piperazin-1-yl]methyl]-5-methyl-1,2,4-oxadiazole] | 24.9 µM | < 30% | < 30% | –
Cc1nc(CN2CCN(c3cc(CC(C)C)ccc3-c3nn[nH]n3)CC2)cs1 [Compound A-87] | 3.81 µM | < 30% | < 30% | –
Cc1cc(CN2CCN(c3cc(CC(C)C)ccc3-c3nn[nH]n3)CC2)on1 [Compound A-89, 5-[[4-[5-isobutyl-2-(2H-tetrazol-5-yl)-phenyl]piperazin-1-yl]methyl]-3-methyl-isoxazole] | 9.78 µM | < 30% | < 30% | –
CC(C)Cc1ccc(-c2nn[nH]n2)c(N2CCN(Cc3cnccn3)CC2)c1 [Compound A-93, 2-[[4-[5-isobutyl-2-(2H-tetrazol-5-yl)-phenyl]piperazin-1-yl]methyl]pyr-azine] | 6.98 µM | < 30% | < 30% | –
CC(C)Cc1ccc(-c2nn[nH]n2)c(N2CCN(Cc3nncn3C)CC2)c1 [Compound A-94, 1-[5-isobutyl-2-(2H-tetrazol-5-yl)phenyl]-4-[(4-methyl-1,2,4-triazol-3-yl)methyl]piperazine] | 4.77 µM | < 30% | 30 to 50% | 14.2 µM
CC(C)Cc1ccc(-c2nn[nH]n2)c(N2CCN(Cc3nccs3)CC2)c1 [Compound A-97, 2-[[4-[5-isobutyl-2-(2H-tetrazol-5-yl)phenyl]piperazin-1-yl]methyl]thiazole] | 0.757 µM | < 30% | < 30% | –
CC(C)Cc1ccc(-c2nn[nH]n2)c(N2CCN(Cc3ncco3)CC2)c1 [Compound A-98, 2-[[4-[5-isobutyl-2-(2H-tetrazol-5-yl)-phenyl]piperazin-1-yl]methyl]oxazole] | 5.69 µM | < 30% | < 30% | –
Cc1noc(C)c1CN1CCN(c2cc(CC(C)C)ccc2-c2nn[nH]n2)CC1 [Compound A-101] | 4.48 µM | < 30% | < 30% | –
CC(C)Cc1ccc(-c2nn[nH]n2)c(N2CCN(Cc3cc(C4CC4)on3)CC2)c1 [Compound A-102, 5-cyclopropyl-3-[[4-[5-isobutyl-2-(2H-tetrazol-5-yl)phenyl]piperazin-1-yl]methyl]isoxazole] | 7.07 µM | < 30% | < 30% | –
Cc1cc(CN2CCN(c3cc(CC(C)C)ccc3-c3nn[nH]n3)CC2)n(C)n1 [Compound A-104, 1-[(2,5-dimethyl-pyrazol-3-yl)meth-yl]-4-[5-isobutyl-2-(2H-tetrazol-5-yl)-phenyl]piperazine] | 6 µM | < 30% | < 30% | –
CC(C)Cc1ccc(-c2nn[nH]n2)c(N2CCN(Cc3cncn3C)CC2)c1 [Compound A-105, 1-[5-isobutyl-2-(2H-tetrazol-5-yl)phenyl]-4-[(3-methylimidazol-4-yl)methyl]piperazine] | 2 µM | < 30% | < 30% | –
Cc1cnc(CN2CCN(c3cc(CC(C)C)ccc3-c3nn[nH]n3)CC2)s1 [Compound A-106, 2-[[4-[5-isobutyl-2-(2H-tetrazol-5-yl)phenyl]piperazin-1-yl]methyl]-5-methyl-thiazole] | 0.0355 µM | < 30% | < 30% | –
Cc1scnc1CN1CCN(c2cc(CC(C)C)ccc2-c2nn[nH]n2)CC1 [Compound A-111, 4-[[4-[5-isobutyl-2-(2H-tetrazol-5-yl)phenyl]piperazin-1-yl]methyl]-5-methyl-thiazole] | 5.43 µM | < 30% | < 30% | –
Cc1cnnc(CN2CCN(c3cc(CC(C)C)ccc3-c3nn[nH]n3)CC2)c1 [Compound A-112, 3-[[4-[5-isobutyl-2-(2H-tetrazol-5-yl)phenyl]piperazin-1-yl]methyl]-5-methyl-pyridazine] | 0.697 µM | < 30% | < 30% | –
Cc1ccc(CN2CCN(c3cc(CC(C)C)ccc3-c3nn[nH]n3)CC2)nn1 [Compound A-113] | 7.07 µM | < 30% | < 30% | –
COc1ccc(CN2CCN(c3cc(CC(C)C)ccc3-c3nn[nH]n3)CC2)nn1 [Compound A-115, 3-[[4-[5-isobutyl-2-(2H-tetrazol-5-yl)-phenyl]piperazin-1-yl]methyl]-6-methoxy-pyridazine] | 1.98 µM | < 30% | < 30% | –
COc1cc(F)c(-c2nn[nH]n2)c(N2CCN(Cc3nc4ccccc4s3)CC2)c1 [Compound A-116, 2-[[4-[3-fluoro-5-methoxy-2-(2H-tetrazol-5-yl)phen-yl]piperazin-1-yl]-methyl]-1,3-benzo-thiazole] | 8.98 µM | < 30% | 30 to 50% | 18.1 µM
CC(C)Oc1cc(F)c(-c2nn[nH]n2)c(N2CCN(Cc3nc4ccccc4s3)CC2)c1 [Compound A-118, 2-[[4-[3-fluoro-5-isopropoxy-2-(2H-tetrazol-5-yl)phen-yl]piperazin-1-yl]-methyl]-1,3-benzo-thiazole] | 1 µM | < 30% | < 30% | 41.5 µM

— patent publication US20240368133A1, “Compounds for the Treatment of Pain, in Particular, Neuropathic Pain, and/or Other Diseases or Disorders that are Associated with AT2R and/or AT2R Mediated Signaling” (Confo Therapeutics N.V., priority 2021, published 2024)
